The subject of assay [1] is OG2 MEFs transduced with OK (Oct4 and Klf4). Kind of assay: iPSC generation from OK-transduced OG2 MEFs (GFP+ colonies), including second synergist screen with BIX. Type of assay: cell-based, mouse. The note with it: for effect on reprogramming of OK transduced MEFs in the second screen: in the presence of 1 μM BIX, FIG. 3: 0.04 μM RG108, 2 μM BayK; for outcome in second synergist screen: 1 μM BIX plus individual compound at 0.5-2 μM, not further followed up. Here is the method:
Primary 129S2/SvPasCrlf (primary screen) or ROSA26^+/−/OG2^+/− (secondary screen) MEFs were plated onto Matrigel (1:50; BD Biosciences, Bedford, Mass.) coated dishes at a density of 3.5×10^4 cells per well of a 6-well plate. Twenty-four hours later, these cells were transduced overnight with defined retroviruses at 37° C., 5% CO2. Twelve to fourteen hours later, the media on the transduced cells was changed to mESC medium [Knockout DMEM, 10% ES-qualified FBS, 10% Knockout serum replacement, 1% Glutamax, 1% Non-essential amino acids, penicillin/streptomycin, 0.1 mM β-mercaptoethanol, 1% EmbryoMax ESC Qualified Nucleosides (Millipore, Temecula, Calif.), and 10^3 U/ml LIF (Millipore)] (all products were from Invitrogen, Carlsbad, Calif., except where mentioned). On that same day, individual small molecules from our known drug collection were added to the cells at a range between 0.5 and 2 μM. Compound treatment was continued for 10-14 days; the cells were fixed and stained on day 14-21 using a standard ALP detection kit (Millipore). For the second screen, 1 μM BIX was added to the mESC medium 1 day after transduction. Five days later, in addition to 1 μM BIX, individual small molecule from the known drug collection was added to each well, at a range between 0.5 and 2 μM. Mouse ESC media with defined small molecules was refreshed every three days until colonies with a similar morphology to mESCs were observed, which was usually between 14-21 days after transduction. […] Further characterization studies and repeats were carried either on primary 129S2/SvPasCrlf or ROSA26^+/−/OG2^+/− MEFs. When ROSA26^+/−/OG2^+/− MEFs were used, the iPSC colonies could also be identified through GFP expression, as a marker of Oct4 expression. Once iPSC colonies were identified, they were picked for expansion on MEF feeder cells in mESC medium.

Another assay has as its system Mouse fibroblasts. Kind of assay: Induction of pluripotency by incubation of fibroblasts with poly-Arg transcription factor proteins. Type of assay: cell-based. The note with it: agent added during protein-induced reprogramming. How it is done:
Mouse fibroblasts were grown in mESC medium supplemented with 8 μg/ml of either Oct4/Sox2/Klf4 or Oct4/Sox2/Klf4/Myc (all proteins comprising poly-Arg as described above) for 6-8 hours, washed, and incubated for 2-3 days in mESC media without the above-listed transcription factors. This (4-12 hours with, 1-3 days without) was repeated a number (1, 2, 3, 4, or more) of times and then the cells were cultures in mESC for two weeks.

The next assay concerns non-iPS cells. The experiment in a line: MEK inhibitor applied at late stage of reprogramming as selection: growth of non-iPS cells. Type of assay: cell-based, mouse. The note with it: late stage of reprogramming (after Oct4-GFP activation). From the text:
(§1) Finally, we observed that the application of a specific small molecule inhibitor of MEK, PD0325901, to late stage of reprogramming (e.g. after Oct4-GFP activation) can serve as an excellent selection strategy for generating iPS cells. Due to the very low efficiency of reprogramming, iPS cells are typically selected out by utilizing reporter (e.g. Neo/Puro or GFP) that is under control of the regulatory elements of a pluripotency marker using genetically modified somatic cell lines, or manually picked out based on cell morphology. While the later method applicable to genetically unmodified cells is better suited for ultimate clinical application of iPS cells, it is a much more tedious and less reliable technique that typically requires picking and propagating over several passages many colonies, only a small fraction of which would become true iPS cells efficiently. This is partly because that large percentage of similarly looking colonies may be partially reprogrammed cells and/or simply transformed cells, which grow rapidly and may interfere with growth and reprogramming of iPS cells. Consequently, having an alternative selection strategy for genetically unmodified cells would be highly desirable.

The subject of a further assay is iPS cells. The experiment in a line: MEK inhibitor applied at late stage of reprogramming as selection: growth and stable reprogramming of iPS cells. The format is cell-based, mouse. The note with it: late stage of reprogramming (after Oct4-GFP activation).
Excerpt: as §1

Assay [2] concerns 129 MEFs transduced with OK (Oct4 and Klf4). The experiment in a line: Screen for iPSC generation from OK-transduced 129 MEFs (ESC-like colony morphology, ALP staining). The format is cell-based, mouse. The note with it: in the absence of BIX. Here is the method: Unmodified MEFs derived from E13-14 embryos of the 129 mice were used for the initial screen. MEFs were plated on Matrigel at 3.5×10^4 cells/well of a 6-well plate and transduced with OK (retroviral vectors expressing Oct4 and Klf4) alone. Within 14-21 days, treated cells were assessed for the appearance of colonies that had the characteristic embryonic stem cell (ESC), colony morphology and were positive for the pluripotency marker alkaline phosphatase (ALP). Such OK-transduced cells generated only a few small non-compact colonies, which were weakly positive for ALP expression. These colonies initially appeared within 21 days after viral transduction and were difficult to expand. Therefore, such assay system offered a clean background for the identification of small molecules having desirable reprogramming inducing activity. Using this system, compounds from a library of around 2000 known small molecules (see Experimental Procedures below) were screened and were identified as hits when they induced the appearance of ESC colonies that were strongly positive for ALP within 14-21 days after treatment. This image-based method provided a more accurate assessment of reprogramming as compared to homogenous reporter-based assay. BIX appeared to have the strongest effect with reproducible induction of more than 1-2 compact ESC-like colonies with high ALP expression. We observed that when MEFs were treated with BIX after OK viral transduction, compact colonies with strong ALP expression could be readily detected within approximately 14-21 days. These cells were also positive for Nanog, Oct4 and SSEA-1 expression. […] However, the reprogramming efficiency in MEFs transduced with OK and treated with BIX was still low, about 2 colonies/3.5×10^4 cells, in comparison to the four factor-induced reprogramming of MEFs or the OK/BIX NPC reprogramming (Shi, Y. et al., Cell Stem Cell, 2:525-528 (2008)). Therefore, we conducted a second screen using a similar protocol, but where BIX was added to the basal media after OK viral transduction. This provided a more permissive platform to identify new small molecules that could further improve reprogramming efficiency. More importantly, this second screen could facilitate discovery of small molecules that impact reprogramming in a more specific manner, for example by acting on signal transduction pathways rather than on histone or DNA modifying enzymes. In this second screen, we again assayed the library of around 2000 known small molecules (see Experimental Procedures), and confirmed two compounds that were able to act in a synergistic manner with BIX to improve reprogramming based on the criteria of the screen. […] Therefore, RG108 was not pursued further for this study. […]

In a further assay the test system is mES R1 cells. The experiment in a line: Proliferation assay. The format is cell-based, mouse. The note with it: 2 μM BayK, 1 μM BIX or both; 15, 24 and 48 hours; compared to DMSO, n=3. Here is the method: mES R1 cells were plated onto gelatin-coated 6-well plates at a density of 2×10^5 cells/well in complete mES cell media. Upon cell attachment, app. 12 hours, the cells were treated either with DMSO, 1 μM BIX, 2 μM BayK, and a combination of both, in triplicate. At 15, 24 and 48 hours, the cells were detached using trypsin, and counted using a hemocytometer. Trypan blue (Sigma-Aldrich, St. Louis, Mo.) was used for dead cell exclusion.

The subject of assay [3] is Sox2 expression in OG2 MEFs. The experiment in a line: Assessment of SOX2 expression after compound treatment (semi-quantitative RT-PCR). The format is cell-based, mouse. The note with it: 2 μM BayK alone or with 1 μM BIX, 6 days. How it is done: OG2^+/−/ROSA26^+/− MEFs were plated onto 6-well plate at a density of 3.4×10^4 cells per well. On the following day, the cells were treated with DMSO, 1 μM BIX, 2 μM BayK, and a combination of both, in triplicate, for 6 days. The media was refreshed at day 3. RNA from each well was then isolated using the RNAeasy Mini Kit (Quiagen). Reverse transcription of the RNA was performed using the iScript™cDNA Synthesis Kit (BioRad, Hercules, Calif.). Amplification of endogenous Sox2 was done using primers previously published (Takahashi, K., Okita, K., Nakagawa, M., and Yamanaka, S. (2007). Induction of pluripotent stem cells from fibroblast cultures. Nat Protoc 2, 3081-3089; Takahashi, K., and Yamanaka, S. (2006). Induction of pluripotent stem cells from mouse embryonic and adult fibroblast cultures by defined factors. Cell 126, 663-676) with Platinum PCR SuperMix (Invitrogen) on a Mastercycler® ep gradient PCR machine (Eppendorf).

For another assay, the system named is cellular reprogramming. Kind of assay: Enhancement of cellular reprogramming by nuclear receptor ligands. Type of assay: cell-based.

“Also recorded” adds a separate entry of the source.

For the molecule `O=C(O)C(Cc1c[nH]c2ccccc12)N1C(=O)c2ccccc2C1=O` (stereo not shown) [RG108], the “effect on reprogramming of OK transduced MEFs in the second screen” value in assay [1] is reported as “enhanced reprogramming of OK transduced MEFs in the presence of BIX”.

Regarding `Cc1c[nH]c(-c2cnc(NCCNc3ccc(C#N)cn3)nc2-c2ccc(Cl)cc2Cl)n1` [CHIR99021], in the assay on Mouse fibroblasts, the “efficiency and speed of development of pluripotent cells” value (“efficiency and speed” below) is “improved efficiency and speed of development of pluripotent cells”. For the molecule `O=C(NOC[C@H](O)CO)c1ccc(F)c(F)c1Nc1ccc(I)cc1F` [PD0325901], the “growth of non-iPS cells” value in the assay on non-iPS cells is “inhibits growth of non-iPS cells”. For the same molecule, in the assay on iPS cells, the “growth and stable reprogramming of iPS cells” value was “effectively promotes growth and stable reprogramming of iPS cells”. In the assay on Mouse fibroblasts, the “efficiency and speed” value was “improved efficiency and speed of development of pluripotent cells”.

As to `NC(=O)c1ccc(-c2nc(-c3ccc4c(c3)OCO4)c(-c3ccccn3)[nH]2)cc1` [SB431542], the “efficiency and speed” value in the assay with Mouse fibroblasts is “improved efficiency and speed of development of pluripotent cells”.

With `COC(=O)C1=C(C)NC(C)=C([N+](=O)[O-])C1c1ccccc1C(F)(F)F` (stereo not shown) [BayK], in assay [2], the “reprogramming activity on OK-transduced MEFs” value is “no observable reprogramming activity”. Moreover, in assay [1] (compound alone, in the absence of BIX (data not shown)), the “reprogramming efficiency versus OK-transduced MEF control” value is reported as “did not increase reprogramming efficiency above OK-transduced MEF control”. Besides, the “effect on reprogramming of OK transduced MEFs in the second screen” value in assay [1] is “strongest effect in the screen aside from known DNA/histone modifiers”. For the same molecule, the “proliferation of mES cells (cell number)” value in the assay on mES R1 cells is recorded as “No significant difference; also recorded: does not lead to a change in proliferation”. In addition, the SOX2 expression result in assay [3] is “does not induce SOX2 expression”. Consider `CC(C)C[C@H](NC(=O)OCC1c2ccccc2-c2ccccc21)C(=O)O` [Fmoc-Leu], for which the cellular reprogramming entry in the assay with cellular reprogramming (at 5 μM) is given as “enhance cellular reprogramming”. As for `C=C(c1ccc(C(=O)O)cc1)c1cc2c(cc1C)C(C)(C)CCC2(C)C` [Bexarotene], in the assay with cellular reprogramming (at 3 μM), the cellular reprogramming result was “enhance cellular reprogramming”. With `CCN(CC)CCCCNc1ncc2cc(-c3cc(OC)cc(OC)c3)c(NC(=O)NC(C)(C)C)nc2n1` [PD173074], the “outcome in second synergist screen” value in assay [1] is “primary hits”. Same read-out and setting: the same measure for `Cc1cc(Nc2ncc3c(n2)N(C)C(=O)N(c2cc(NC(=O)c4cccc(C(F)(F)F)c4)ccc2C)C3)n(C)n1` [pluripotin]: “primary hits”. Same read-out and setting: the same measure for `c1nc2nc(Nc3ccc(N4CCOCC4)cc3)nc(NC3CCCCC3)c2[nH]1` [reversine]: “primary hits”.
